# Test results published in patent US7910337B2, “Method for identifying drug-sensitizing antisense DNA fragments and use thereof” (priority 2006, dated 2011).
# Assays:
# [1] = system: S. aureus engineered with murB antisense
# [2] = system: MetRS antisense clones; assay type: cell-based, B. anthracis
# [3] = system: B. anthracis murB-2 antisense strain
SMILES,"IC50 shift (sensitivity), antibiotic panel [1] [fold]",difference in sensitivity with and without inducer [2],IC50 shift [3],IC50 shift [1]
CCN1CCN(C(=O)N[C@@H](C(=O)N[C@@H]2C(=O)N3[C@@H]2SC(C)(C)[C@@H]3C(=O)O)c2ccccc2)C(=O)C1=O [pipericillin],≥ 4,–,–,–
Cc1onc(-c2ccccc2)c1C(=O)N[C@@H]1C(=O)N2[C@@H]1SC(C)(C)[C@@H]2C(=O)O [oxacillin],≥ 4,–,–,–
CO/N=C(\C(=O)N[C@@H]1C(=O)N2C(C(=O)O)=C(COC(C)=O)CS[C@H]12)c1csc(N)n1 [cefotaxime],≥ 4,no difference in sensitivity,343,–
Cc1onc(-c2c(Cl)cccc2Cl)c1C(=O)N[C@@H]1C(=O)N2[C@@H]1SC(C)(C)[C@@H]2C(=O)O [dicloxacillin],≥ 4,–,–,5.8
CO/N=C(\C(=O)N[C@@H]1C(=O)N2C(C(=O)[O-])=C(C[N+]3(C)CCCC3)CS[C@H]12)c1csc(N)n1 [cefepime],≥ 4,–,–,–
Cc1nnc(SCC2=C(C(=O)O)N3C(=O)[C@@H](NC(=O)Cn4cnnn4)[C@H]3SC2)s1 [cefozolin],≥ 4,–,–,–
CO/N=C(\C(=O)N[C@@H]1C(=O)N2C(C(=O)O)=C(CSc3nc(=O)c(=O)[nH]n3C)CS[C@H]12)c1csc(N)n1 [ceftriaxone],≥ 4,–,–,–
CO[C@@]1(NC(=O)Cc2cccs2)C(=O)N2C(C(=O)O)=C(COC(N)=O)CS[C@@H]21 [cefoxitin],≥ 4,–,–,7.8
